We go through ten molecules from US20240391965A1, “STAPLED ANTIMICROBIAL PEPTIDES (STAMPS) AND USES THEREOF” (Lytica Therapeutics, Inc., priority 2021, published 2024).

Series [1] in a line: 48 hours cytotoxicity assay (CellTiter-Glo), liver toxicity. Format: cell-based, human. The essentials:
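HepG2 cells in EMEM with 10% FBS, allowed to attach 4 h, then exposed to serially diluted StAMPs or vehicle for 48 h at 37 °C. Viability read by CellTiter-Glo luminescence.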
(In ATP-based viability assays light output follows the ATP content of the culture.)

Series [2] concerns Acinetobacter baumannii (A. baumannii). Format: cell-based. The settings on record: microbroth dilution, 20-24 hours at 37° C. As for the experimental part: (§1) Antimicrobial Activity Assay: The following microbroth dilution protocol was adapted from CLSI to determine the minimum inhibitory concentration (MIC) of StAMPs. Briefly, Mueller-Hinton broth (MHB) or cation-adjusted Mueller-Hinton broth (MHB II) was prepared and autoclaved. Then, a colony of bacterial cells was picked and grown overnight in broth at 37° C. and then diluted and allowed to grow again for 3-4 hours. Serial dilutions of peptide stocks in water (10 μl) were prepared using clear round-bottom polypropylene 96-well plates. Then 90 μl of bacteria in broth was added to give a final inoculum of 5×10^5 CFU/ml. The plates were then covered with porous tape to reduce evaporation and incubated for 20-24 hours at 37° C. The MIC was the minimum peptide concentration at which no visible bacterial growth was observed.

For series [3], the system named is Pseudomonas aeruginosa (P. aeruginosa). Format: cell-based. The settings on record: microbroth dilution, 20-24 hours at 37° C. As for the experimental part:
as §1
For orientation: In broth dilution the organism is exposed to a series of concentrations in liquid medium.

Series [4] relates to Escherichia coli (E. coli). In kind it is cell-based. The settings on record: microbroth dilution, 20-24 hours at 37° C. As to the method:
as §1

Series [5] deals with Klebsiella pneumoniae (K. pneumoniae). In kind it is cell-based. The settings on record: microbroth dilution, 20-24 hours at 37° C. As for the experimental part: as §1
Series [6] concerns Staphylococcus aureus (S. aureus). In kind it is cell-based. The settings on record: microbroth dilution, 20-24 hours at 37° C. As for the experimental part: as §1
A short description of series [7]: 90 minute cytotoxicity assay (LDH release), renal toxicity. In kind it is cell-based. The method in brief:
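RPTEC plated overnight, given fresh medium, then exposed to serial peptide dilutions or vehicle for 90 min at 37° C. Medium LDH measured by 10 min reagent incubation and absorbance at 490 nm.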
On the technique in general: LDH leaks from cells whose membrane has failed.

Where [8] appears, read: 48 hours of incubation, CellTiter-Glo, read-out: Inhibitory Concentration at 50% Cytotoxicity (IC50) Human Liver Cells (HepG2).

Converted amounts (≈) assume the structure as drawn. Starred links: 1 amine or outer side, 2 acyl side, 3 side chain; linkers in the order of their positions; H or OH if unused. Positions of bridges follow the written chain, without caps; N, C: chain ends. Residues, ends and D or L forms follow the SMILES beside them. 2,2'Bipyridine(5,5'-diCH2) = c1cc(-c2ccc(C[*:2])cn2)ncc1C[*:1]; Biphenyl(4,4'-CH2)2 = c1cc(-c2ccc(C[*:2])cc2)ccc1C[*:1]; Naphthalene(2,6-diCH2) = c1cc2cc(C[*:2])ccc2cc1C[*:1]; mXylylene = c1cc(C[*:1])cc(C[*:2])c1 Where only a bound is given, the exact number is not on record here.

On to `CC[C@H](C)[C@H](NC(=O)CN)C(=O)N[C@@H](Cc1ccccc1)C(=O)N[C@@H](CO)C(=O)N[C@@H](CCCCN)C(=O)N[C@H]1CSCc2ccc3cc(ccc3c2)CSC[C@@H](C(=O)N[C@@H](CC(C)C)C(=O)N[C@@H](CC(C)C)C(=O)N[C@H](C(=O)N[C@@H](CO)C(=O)NCC(=O)N[C@@H](CC(C)C)C(=O)N[C@@H](CCCCN)C(=O)NCC(N)=O)[C@@H](C)CC)NC(=O)[C@H](CCCCN)NC(=O)[C@H]([C@@H](C)CC)NC(=O)[C@H](CCCCN)NC(=O)[C@H](CCCCN)NC(=O)CNC(=O)[C@H](C)NC1=O` [compound 64] (H-GIFSKCAGKKIKCLLISGLKG-NH2; linker 6-13 via Naphthalene(2,6-diCH2)), for which the IC50 in series [1] (setting [8]) was 53 mg/L (≈ 22.9 µM). Also, the “Minimum Inhibitory Concentration (MIC) A. baumannii” value in series [2] is 8 mg/L. For the same molecule, the “Minimum Inhibitory Concentration (MIC) P. aeruginosa” value in series [3] was >64 mg/L. The “Minimum Inhibitory Concentration (MIC) E. coli” value in series [4] was found to be 8 mg/L. The “Minimum Inhibitory Concentration (MIC) K. pneumoniae” value in series [5] stood at 16 mg/L. Besides, the “Minimum Inhibitory Concentration (MIC) S. aureus” value in series [6] is >64 mg/L.
In the case of `CC[C@H](C)[C@H](NC(=O)CN)C(=O)N[C@@H](Cc1ccccc1)C(=O)N[C@@H](CO)C(=O)N[C@@H](CCCCN)C(=O)N[C@H]1CSCc2ccc(cc2)-c2ccc(cc2)CSC[C@@H](C(=O)N[C@@H](CC(C)C)C(=O)N[C@@H](CC(C)C)C(=O)N[C@H](C(=O)N[C@@H](CO)C(=O)NCC(=O)N[C@@H](CC(C)C)C(=O)N[C@@H](CCCCN)C(=O)NCC(N)=O)[C@@H](C)CC)NC(=O)[C@H](CCCCN)NC(=O)[C@H]([C@@H](C)CC)NC(=O)[C@H](CCCCN)NC(=O)[C@H](CCCCN)NC(=O)CNC(=O)[C@H](C)NC1=O` [compound 65] (H-GIFSKCAGKKIKCLLISGLKG-NH2; linker 6-13 via Biphenyl(4,4'-CH2)2; N-terminus assumed), the IC50 in series [7] turned out to be 15 mg/L (≈ 6.4 µM); in series [1], 13 mg/L (≈ 5.55 µM).
For `CC[C@H](C)[C@H](NC(=O)CN)C(=O)N[C@@H](Cc1ccccc1)C(=O)N[C@@H](CO)C(=O)N[C@@H](CCCCN)C(=O)N[C@@H](CC(C)C)C(=O)N[C@@H](C)C(=O)N[C@H]1CSCc2ccc(nc2)-c2ccc(cn2)CSC[C@@H](C(=O)N[C@H](C(=O)N[C@@H](CO)C(=O)NCC(=O)N[C@@H](CC(C)C)C(=O)N[C@@H](CCCCN)C(=O)NCC(N)=O)[C@@H](C)CC)NC(=O)[C@H](CC(C)C)NC(=O)[C@H](CC(N)=O)NC(=O)[C@H](CCCCN)NC(=O)[C@H]([C@@H](C)CC)NC(=O)[C@H](CCCCN)NC(=O)[C@H](CCCCN)NC1=O` [compound 66] (H-GIFSKLACKKIKNLCISGLKG-NH2; linker 8-15 via 2,2'Bipyridine(5,5'-diCH2)), in series [1] (setting [8]), the IC50 amounted to 75 mg/L (≈ 31.2 µM). Moreover, in series [2], the “Minimum Inhibitory Concentration (MIC) A. baumannii” value came out at 4 mg/L. Also, the “Minimum Inhibitory Concentration (MIC) P. aeruginosa” value in series [3] is 32 mg/L. Further, the “Minimum Inhibitory Concentration (MIC) E. coli” value in series [4] is 8 mg/L. In addition, in series [5], the “Minimum Inhibitory Concentration (MIC) K. pneumoniae” value came out at 16 mg/L. The “Minimum Inhibitory Concentration (MIC) S. aureus” value in series [6] is >64 mg/L.
With `CC[C@H](C)[C@H](NC(=O)CN)C(=O)N[C@@H](Cc1ccccc1)C(=O)N[C@@H](CO)C(=O)N[C@@H](CCCCN)C(=O)N[C@@H](CC(C)C)C(=O)N[C@H]1CSCc2ccc(cc2)-c2ccc(cc2)CSC[C@@H](C(=O)N[C@@H](CC(C)C)C(=O)N[C@H](C(=O)N[C@@H](CO)C(=O)NCC(=O)N[C@@H](CC(C)C)C(=O)N[C@@H](CCCCN)C(=O)NCC(N)=O)[C@@H](C)CC)NC(=O)[C@H](CC(N)=O)NC(=O)[C@H](CCCCN)NC(=O)[C@H]([C@@H](C)CC)NC(=O)[C@H](CCCCN)NC(=O)[C@H](CCCCN)NC(=O)CNC1=O` [compound 88] (H-GIFSKLCGKKIKNCLISGLKG-NH2; linker 7-14 via Biphenyl(4,4'-CH2)2; N-terminus assumed), the IC50 was 13 mg/L (≈ 5.45 µM) in series [7] and 15 mg/L (≈ 6.29 µM) in series [1].
Taken in the same sequence, the figures for `CC[C@H](C)[C@H](NC(=O)CN)C(=O)N[C@@H](Cc1ccccc1)C(=O)N[C@@H](CO)C(=O)N[C@@H](CCCCN)C(=O)N[C@@H](CC(C)C)C(=O)N[C@H]1CSCc2cccc(c2)CSC[C@@H](C(=O)N[C@@H](CCCCN)C(=O)N[C@@H](CC(N)=O)C(=O)N[C@@H](CC(C)C)C(=O)N[C@@H](CC(C)C)C(=O)N[C@H](C(=O)N[C@@H](CO)C(=O)NCC(=O)N[C@@H](CC(C)C)C(=O)N[C@@H](CCCCN)C(=O)NCC(=O)NCC(=O)NCC(=O)N[C@@H](CCCCN)C(=O)O)[C@@H](C)CC)NC(=O)[C@H](CCCCN)NC(=O)[C@H](CCCCN)NC(=O)CNC1=O` [compound 94] (H-GIFSKLCGKKCKNLLISGLKGGGK-OH; linker 7-11 via mXylylene; N-terminus assumed) were 168 mg/L (≈ 65.8 µM) and > 200 mg/L.
Take `CC[C@H](C)[C@H](NC(=O)CN)C(=O)N[C@@H](Cc1ccccc1)C(=O)N[C@@H](CO)C(=O)N[C@@H](CCCCN)C(=O)N[C@@H](CC(C)C)C(=O)N[C@H]1CSCc2cccc(c2)CSC[C@@H](C(=O)N[C@@H](CCCCN)C(=O)N[C@@H](CC(N)=O)C(=O)N[C@@H](CC(C)C)C(=O)N[C@@H](CC(C)C)C(=O)N[C@H](C(=O)N[C@@H](CO)C(=O)NCC(=O)N[C@@H](CC(C)C)C(=O)N[C@@H](CCCCN)C(=O)NCC(=O)N[C@@H](C)C(=O)NCC(=O)O)[C@@H](C)CC)NC(=O)[C@H](CCCCN)NC(=O)[C@H](CCCCN)NC(=O)CNC1=O` [compound 95] (H-GIFSKLCGKKCKNLLISGLKGAG-OH; linker 7-11 via mXylylene; N-terminus assumed): the IC50 in series [7] was 167 mg/L (≈ 68.5 µM); in series [1], > 200 mg/L.
Taken in the same sequence, the figures for `CC[C@H](C)[C@H](NC(=O)CN)C(=O)N[C@@H](Cc1ccccc1)C(=O)N[C@@H](CO)C(=O)N[C@@H](CCCCN)C(=O)N[C@@H](CC(C)C)C(=O)N[C@H]1CSCc2cccc(c2)CSC[C@@H](C(=O)N[C@@H](CCCCN)C(=O)N[C@@H](CC(N)=O)C(=O)N[C@@H](CC(C)C)C(=O)N[C@@H](CC(C)C)C(=O)N[C@H](C(=O)N[C@@H](CO)C(=O)NCC(=O)N[C@@H](CC(C)C)C(=O)N[C@@H](CCCCN)C(=O)NCC(=O)N[C@@H](C)C(=O)N[C@@H](CCCCN)C(=O)O)[C@@H](C)CC)NC(=O)[C@H](CCCCN)NC(=O)[C@H](CCCCN)NC(=O)CNC1=O` [compound 96] (H-GIFSKLCGKKCKNLLISGLKGAK-OH; linker 7-11 via mXylylene; N-terminus assumed) were 153 mg/L (≈ 61 µM) and 193 mg/L (≈ 76.9 µM).
Taken in the same sequence, the figures for `CC[C@H](C)[C@H](NC(=O)CN)C(=O)N[C@@H](Cc1ccccc1)C(=O)N[C@@H](CO)C(=O)N[C@@H](CCCCN)C(=O)N[C@@H](CC(C)C)C(=O)N[C@H]1CSCc2cccc(c2)CSC[C@@H](C(=O)N[C@@H](CCCCN)C(=O)N[C@@H](CC(N)=O)C(=O)N[C@@H](CC(C)C)C(=O)N[C@@H](CC(C)C)C(=O)N[C@H](C(=O)N[C@@H](CO)C(=O)NCC(=O)N[C@@H](CC(C)C)C(=O)N[C@@H](CCCCN)C(=O)NCC(=O)O)[C@@H](C)CC)NC(=O)[C@H](CCCCN)NC(=O)[C@H](CCCCN)NC(=O)[C@H](C)NC1=O` [compound 97] (H-GIFSKLCAKKCKNLLISGLKG-OH; linker 7-11 via mXylylene; N-terminus assumed) were > 200 mg/L and > 200 mg/L.
For `CC[C@H](C)[C@H](NC(=O)CN)C(=O)N[C@@H](Cc1ccccc1)C(=O)N[C@@H](CO)C(=O)N[C@@H](CCCCN)C(=O)N[C@@H](CC(C)C)C(=O)N[C@H]1CSCc2cccc(c2)CSC[C@@H](C(=O)N[C@@H](CCCCN)C(=O)N[C@@H](CC(N)=O)C(=O)N[C@@H](CC(C)C)C(=O)N[C@@H](CC(C)C)C(=O)N[C@H](C(=O)N[C@@H](CO)C(=O)N[C@@H](C)C(=O)N[C@@H](CC(C)C)C(=O)N[C@@H](CCCCN)C(=O)NCC(=O)O)[C@@H](C)CC)NC(=O)[C@H](CCCCN)NC(=O)[C@H](CCCCN)NC(=O)CNC1=O` [compound 98] (H-GIFSKLCGKKCKNLLISALKG-OH; linker 7-11 via mXylylene; N-terminus assumed), the IC50 in series [7] turned out to be 28 mg/L (≈ 12 µM); in series [1] it was 50 mg/L (≈ 21.5 µM).
Taken in the same sequence, the figures for `CC[C@H](C)[C@H](NC(=O)CN)C(=O)N[C@@H](Cc1ccccc1)C(=O)N[C@@H](CO)C(=O)N[C@@H](CCCCN)C(=O)N[C@@H](CC(C)C)C(=O)N[C@H]1CSCc2cccc(c2)CSC[C@@H](C(=O)N[C@@H](CCCCN)C(=O)N[C@@H](CC(N)=O)C(=O)N[C@@H](CC(C)C)C(=O)N[C@@H](CC(C)C)C(=O)N[C@H](C(=O)N[C@@H](CO)C(=O)N[C@@H](C)C(=O)N[C@@H](CC(C)C)C(=O)N[C@@H](CCCCN)C(=O)NCC(=O)O)[C@@H](C)CC)NC(=O)[C@H](CCCCN)NC(=O)[C@H](CCCCN)NC(=O)[C@H](C)NC1=O` [compound 99] (H-GIFSKLCAKKCKNLLISALKG-OH; linker 7-11 via mXylylene; N-terminus assumed) were 45 mg/L (≈ 19.2 µM) and 59 mg/L (≈ 25.2 µM).
